The structures appear in SMILES notation.

Assay [1] addresses T1, Estrogen receptor beta (Homo sapiens, UniProt Q92731). As to the kind of experiment: Displacement of [3H]-estradiol from human full-length ERbeta receptor by competitive radiometric binding assay relative to estradiol. For orientation: Displacement assays read how much labelled ligand stays bound in the presence of the test substance.
Assay [2] deals with T2, Estrogen receptor (Homo sapiens) (UniProt P03372).
T2 sequence (whole entry): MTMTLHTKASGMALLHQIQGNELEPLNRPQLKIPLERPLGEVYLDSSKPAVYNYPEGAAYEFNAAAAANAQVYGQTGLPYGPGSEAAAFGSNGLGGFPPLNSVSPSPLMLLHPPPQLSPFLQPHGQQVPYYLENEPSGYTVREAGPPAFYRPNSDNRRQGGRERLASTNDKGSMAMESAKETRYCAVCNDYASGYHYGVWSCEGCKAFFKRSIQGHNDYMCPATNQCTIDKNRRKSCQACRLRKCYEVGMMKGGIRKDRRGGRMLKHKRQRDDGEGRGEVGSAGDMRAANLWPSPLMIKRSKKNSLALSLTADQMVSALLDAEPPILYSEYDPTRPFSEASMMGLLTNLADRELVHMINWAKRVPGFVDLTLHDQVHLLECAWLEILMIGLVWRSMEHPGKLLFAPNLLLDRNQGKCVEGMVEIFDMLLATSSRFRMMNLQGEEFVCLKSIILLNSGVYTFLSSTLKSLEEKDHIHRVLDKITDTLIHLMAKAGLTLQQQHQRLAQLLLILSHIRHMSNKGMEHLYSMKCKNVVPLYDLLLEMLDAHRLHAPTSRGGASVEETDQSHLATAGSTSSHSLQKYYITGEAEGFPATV
Kind of assay: Displacement of [3H]-estradiol from human full-length ERalpha receptor by competitive radiometric binding assay relative to estradiol.

Assay [3] concerns the target T2, Estrogen receptor (Homo sapiens). Kind of assay: Agonist activity at human full-length ERalpha receptor expressed in human HEC1 cells co-expressing (ERE)2-pS2-luc gene assessed as transcriptional activation after 24 hrs by luciferase reporter gene assay relative to estradiol. The settings on record: HEC-1. The assay is classed as functional, cell-based.
Assay [4] addresses T1, Estrogen receptor beta.
Assay [5] addresses T1, Estrogen receptor beta. As to the kind of experiment: Agonist activity at human full-length ERbeta receptor expressed in human HEC1 cells co-expressing (ERE)2-pS2-luc gene assessed as transcriptional activation after 24 hrs by luciferase reporter gene assay relative to estradiol. The assay is classed as functional, cell-based. The following applies: HEC-1.
A further assay has as its target T3, Estrogen receptor (Homo sapiens, UniProt P03372).
T3 sequence (P03372 whole entry): T2 sequence (whole entry)

Assay [6] deals with T1, Estrogen receptor beta. The source holds these as a separate data set.

T1 sequence (Q92731 whole entry): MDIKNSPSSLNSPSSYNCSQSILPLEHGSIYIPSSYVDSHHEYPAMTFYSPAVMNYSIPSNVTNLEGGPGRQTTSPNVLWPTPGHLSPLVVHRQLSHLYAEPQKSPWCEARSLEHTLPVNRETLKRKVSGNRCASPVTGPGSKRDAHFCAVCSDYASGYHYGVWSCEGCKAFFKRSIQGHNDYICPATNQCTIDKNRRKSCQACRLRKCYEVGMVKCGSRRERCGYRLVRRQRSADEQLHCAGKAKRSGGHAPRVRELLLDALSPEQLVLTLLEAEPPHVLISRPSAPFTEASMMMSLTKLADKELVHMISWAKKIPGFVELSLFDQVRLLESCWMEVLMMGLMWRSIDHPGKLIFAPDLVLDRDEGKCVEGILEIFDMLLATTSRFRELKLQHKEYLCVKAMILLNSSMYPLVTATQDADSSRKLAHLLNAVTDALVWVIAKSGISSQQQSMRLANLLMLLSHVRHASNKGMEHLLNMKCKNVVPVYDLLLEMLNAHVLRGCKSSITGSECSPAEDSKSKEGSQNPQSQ

In the case of `Cc1c(-c2ccc(O)c(F)c2)cc(Cl)c(O)c1/C=N/O`, the RBA at Estrogen receptor beta [1] was found to be 7.9%; in assay [2], 0.39%.
In general, Emax refers to the greatest response seen or fitted, relative to the assay's reference. The EC50 is the concentration giving half of the maximal effect. Lower therefore signals an effect from little substance. For the compound `O/N=C/c1c(O)ccc(-c2ccc(O)cc2)c1-c1ccc(O)cc1`, the RBA on Estrogen receptor beta [1] was 101%; in assay [2] it was 88.4%. Moreover, the results for the Emax (in assay [3]; on Estrogen receptor beta [5]) were 90% and 80%, respectively. Moreover, the values for the EC50 on Estrogen receptor beta [4] and on Estrogen receptor were 0.5 nM and 0.3 nM, respectively.
For orientation: Ki means the equilibrium dissociation constant of an inhibitor or competing ligand from its target. `O/N=C/c1c(O)ccc(-c2ccc(O)cc2)c1Cl`: the RBA on Estrogen receptor beta [1] was determined as 130%; in assay [2] it was 4.46%. Moreover, the Emax (in assay [3]; on Estrogen receptor beta [5]) was 100% in each case. Besides, at Estrogen receptor beta [6], the Ki came out at 0.38 nM. Also, the EC50 on Estrogen receptor beta [4] was 0.23 nM; at Estrogen receptor, 0.58 nM.
For the compound `Cc1cc(-c2ccc(O)cc2)c(Cl)c(/C=N/O)c1O`, the RBA at Estrogen receptor beta [1] worked out at 0.64%; in assay [2], 0.074%.
Consider `O/N=C/c1ccc(-c2ccc(O)cc2)c(-c2ccc(O)cc2)c1O`, for which the results for the RBA (on Estrogen receptor beta [1]; in assay [2]) were 0.35% and 0.92%, respectively.
Consider `O/N=C/c1c(O)ccc(-c2ccc(O)c(F)c2)c1Cl`, for which the figures for the RBA (at Estrogen receptor beta [1]; in assay [2]) were 87.1% and 1.88%, respectively. Also, the maximal effect (Emax) (in assay [3]; on Estrogen receptor beta [5]) was 100% throughout. This compound returned a Ki at Estrogen receptor beta [6] of 0.57 nM. The EC50 at Estrogen receptor beta [4] came out at 1.3 nM; on Estrogen receptor, 8.4 nM.
Take `Cc1c(-c2ccc(O)cc2)cc(Cl)c(O)c1/C=N/O`: the values for the RBA (on Estrogen receptor beta [1]; in assay [2]) were 15.8% and 1.47%, respectively.

These data come from ChEMBL document CHEMBL1781957, “Selective and potent agonists for estrogen receptor beta derived from molecular refinements of salicylaldoximes” (Eur J Med Chem, 2011).
